Results on one compound are retold here after patent US11883398B2, “Dipeptidylpeptidase 4 inhibition enhances lymphocyte trafficking, improving both naturally occurring tumor immunity and immunotherapy” (INSTITUT PASTEUR, priority 2015, dated 2024).

The test system of one assay is B16F10 melanoma. As to the kind of experiment: Subcutaneous B16F10 melanoma tumor growth in vivo. Also on record: species or system mouse. How it is done:
Mice used were 7-12 weeks old. […] B16F10 and […] (Ovalbumin-expressing B16F10 cells, gift from C. Reis e Sousa) tumor cells were cultured in DMEM (Gibco) supplemented with 10% FCS (PAA), 0.1 mM non-essential amino acids, 1 mM sodium pyruvate, 10 mM Hepes, 70 μM beta-mercaptoethanol and 23 μg/ml gentamycin (all from Gibco). CT26 colon carcinoma cells were cultured in RPMI (Gibco) supplemented as described for DMEM. Cells for injections were passaged 1-2 times after thawing, before use. WT and genetically modified mice were subcutaneously injected with 2×10^5 B16 or 5×10^5 CT26 cells in the shaved right flank. […] For blocking of chemokine and chemokine receptors, WT mice were intraperitoneally injected with 100 μg of hamster a-mCXCR3 (clone CXCR3-173, BioLegend), 100 μg of hamster α-mCCR5 (clone HM-CCR5, BioLegend), 50 μg of rat anti-mCXCL10 (clone 134013, R&D systems) and 20 μg of rat-α-mCXCR4 (clone 2B11/CXCR4, BD Biosciences) or with respective isotype antibodies (hamster IgG (clone HTK888, BioLegend, used as control for mCXCR3 and mCCR5 blockage); rat IgG2a (clone 54447, R&D systems, used as control for mCXCL10 blockade) and rat IgG2b (clone A95-1, BD Biosciences, used as control for mCXCR4 blockade). […] For CXCL10 neutralization, antibodies were injected on day 2, 5, 8 and 11 after tumor cell injection. For immunotherapy protocols, mice were intraperitoneally injected with 100 μg of mouse α-CTLA-4 (clone 9D9, Bioxcell), 200 μg of PD1 (clone RMP1-14, Bioxcell), a combination of 100 μg of α-CTLA-4+200 μg of a-PD1 or control isotypes (100 μg […] and 200 μg rat IgG2a (clone 2A3), both from Bioxcell) on day 3, 6 and 9 after tumor cell implantation. For adoptive cell transfer experiments, Pmel-1 Thy-1.1^+Thy-1.1^+, Cxcr3^-/- Thy-1.1^+Thy-1.2^+ Pmel-1 or OT1 splenocytes were activated ex-vivo, by incubation with 1 nM of human gp100 (for Pmel-1 cells) or […] (for OT1 cells) peptides for 1h at room temperature with agitation. Splenocytes were then washed and resuspended in R10 supplemented with 30U/mL of recombinant human IL-2. CD8^+ T cells were expanded for 6-7 days before used. […] For analysis of tumor growth, activated OT1 cells were injected intravenously (1×10^5 cells per mouse) into gender matched tumor-bearing mice, 3 days after tumor cell injection. Tumor height and width were measured with a caliper and tumor volume was calculated (Elliptical volume=width^2×height×0.523). […] Lungs with more than 100 metastatic nodules were defined as 100.

Another assay relates to CXCR3-expressing T cells. As to the kind of experiment: Model of trafficking into the peritoneal cavity. It counts as in vivo, mouse. Here is the method:
(§1) WT and Dpp4^−/− mice were intraperitoneally injected with PBS or 1 μg of mCXCL10, mCXCL9 or mCCL5 (all from Peprotech). At the indicated time points, mice were sacrificed and peritoneal cells were collected in 10 mL of PBS. For thioglycollate induced peritonitis mice were intraperitoneally injected with thioglycollate 3% weight/volume, 24 hours before collection of peritoneal cells.
Fluorochrome-conjugated anti-mouse CD3 (clone145-2C11), CD8 (clone 53-6.7), CD4 (clone RM4-5), NK1.1 (clone PK136), CD49b (clone DX5), CD25 (clone PC61), B220 (clone RA3-6B2), Ly6G (clone 1A8), Ly6C (clone AL-21), CD11 b (clone M1/70) Siglec-F (clone E50-2440), MHCII IA-IE (clone M5/114.15.2), CD45.2 (clones 56-0454-82 and 109830), Thy-1.1 (clone HIS51), Thy-1.2 (clone 53-2.1), DPP4 (clone H194-112) and CXCR3 (clone CXCR3-173) were from eBiosciences and BD Biosciences. Fluorochrome conjugated anti-F4/80 (clone CI:A3-1) was from AbDserotec. For exclusion of dead cells, Live/Dead fixable Aqua reagent (Invitrogen) was used. For all staining protocols, cell suspensions were incubated with mouse CD16/CD32 Fc Blocking antibodies (BD Biosciences) prior to antibody. For analysis of peritoneal cavity infiltrates, cells were washed and incubated with a cocktail of fluorochrome-conjugated antibodies. For analysis of tumor infiltrates, B16F10 tumors were collected at the indicated time points and digested in PBS supplemented with 2.7 mg/ml of Collagenase (Roche) and 23U/ml of Deoxyribonuclease I (Invitrogen) for 30 min, 37° C. Digestion was terminated by adding PBS supplemented with 2% FCS and 5 mM EDTA (Gibco). Tumor cell suspensions were obtained after filtration over a 70 μm cell strainer. For determination of cell numbers, the […] COUNTING BEADS reagent (Invitrogen) was used. Flow cytometry was performed using a BD LSRFORTESSA or a BD CANTO cytometer, with DIVA software. Computer analysis was done with FLOWJO (Treestar).

Assay [1] in a line: Thioglycollate induced peritonitis. The class given is in vivo, mouse. The settings on record: 24 h after intraperitoneal thioglycollate, sitagliptin vs control. Here is the method:
as §1

A further assay deals with CT26 tumors. As to the kind of experiment: Flow cytometry of leukocytes infiltrating CT26 tumors. It counts as in vivo, mouse. The note with it: day 11, sitagliptin vs control. A general note: Flow cytometry measures light scatter and fluorescence of single cells or particles in a stream.
Another assay deals with DPP9 (Homo sapiens, UniProt Q86TI2). The note with it: Verspohl 2012; Huan et al. 2015; cited from earlier work.
The next assay concerns MEK1 induced skin tumors. The settings on record: Arwert and colleagues; cited from earlier work.
The next assay deals with DPP8 (Homo sapiens, UniProt Q6V1X1). The settings on record: Verspohl 2012; Huan et al. 2015; cited from earlier work.
DPP8, sequence (Q6V1X1 whole entry, species assumed): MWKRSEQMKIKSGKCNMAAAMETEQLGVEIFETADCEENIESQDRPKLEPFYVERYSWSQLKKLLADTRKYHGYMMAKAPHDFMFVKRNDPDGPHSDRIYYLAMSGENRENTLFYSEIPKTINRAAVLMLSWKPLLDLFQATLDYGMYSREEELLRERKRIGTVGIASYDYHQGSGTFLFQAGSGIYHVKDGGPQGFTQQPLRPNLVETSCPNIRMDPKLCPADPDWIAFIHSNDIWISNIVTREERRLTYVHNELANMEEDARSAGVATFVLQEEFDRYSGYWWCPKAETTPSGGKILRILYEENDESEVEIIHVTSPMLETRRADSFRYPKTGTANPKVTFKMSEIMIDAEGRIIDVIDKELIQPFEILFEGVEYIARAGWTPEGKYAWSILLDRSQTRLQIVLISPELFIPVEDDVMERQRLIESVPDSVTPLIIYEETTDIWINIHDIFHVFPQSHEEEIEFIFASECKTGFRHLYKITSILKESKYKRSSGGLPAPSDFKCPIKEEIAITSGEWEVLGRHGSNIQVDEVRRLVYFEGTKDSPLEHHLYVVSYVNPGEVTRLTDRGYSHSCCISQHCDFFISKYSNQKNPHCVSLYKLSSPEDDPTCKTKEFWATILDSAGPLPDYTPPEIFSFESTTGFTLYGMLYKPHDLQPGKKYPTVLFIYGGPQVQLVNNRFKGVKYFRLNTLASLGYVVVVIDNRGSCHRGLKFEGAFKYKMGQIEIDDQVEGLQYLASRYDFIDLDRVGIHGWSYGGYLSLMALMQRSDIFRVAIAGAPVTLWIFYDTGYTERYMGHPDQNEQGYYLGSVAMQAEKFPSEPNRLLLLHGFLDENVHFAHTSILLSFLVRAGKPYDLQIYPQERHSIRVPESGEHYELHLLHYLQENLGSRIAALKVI

DPP9, sequence (Q86TI2 whole entry, species assumed): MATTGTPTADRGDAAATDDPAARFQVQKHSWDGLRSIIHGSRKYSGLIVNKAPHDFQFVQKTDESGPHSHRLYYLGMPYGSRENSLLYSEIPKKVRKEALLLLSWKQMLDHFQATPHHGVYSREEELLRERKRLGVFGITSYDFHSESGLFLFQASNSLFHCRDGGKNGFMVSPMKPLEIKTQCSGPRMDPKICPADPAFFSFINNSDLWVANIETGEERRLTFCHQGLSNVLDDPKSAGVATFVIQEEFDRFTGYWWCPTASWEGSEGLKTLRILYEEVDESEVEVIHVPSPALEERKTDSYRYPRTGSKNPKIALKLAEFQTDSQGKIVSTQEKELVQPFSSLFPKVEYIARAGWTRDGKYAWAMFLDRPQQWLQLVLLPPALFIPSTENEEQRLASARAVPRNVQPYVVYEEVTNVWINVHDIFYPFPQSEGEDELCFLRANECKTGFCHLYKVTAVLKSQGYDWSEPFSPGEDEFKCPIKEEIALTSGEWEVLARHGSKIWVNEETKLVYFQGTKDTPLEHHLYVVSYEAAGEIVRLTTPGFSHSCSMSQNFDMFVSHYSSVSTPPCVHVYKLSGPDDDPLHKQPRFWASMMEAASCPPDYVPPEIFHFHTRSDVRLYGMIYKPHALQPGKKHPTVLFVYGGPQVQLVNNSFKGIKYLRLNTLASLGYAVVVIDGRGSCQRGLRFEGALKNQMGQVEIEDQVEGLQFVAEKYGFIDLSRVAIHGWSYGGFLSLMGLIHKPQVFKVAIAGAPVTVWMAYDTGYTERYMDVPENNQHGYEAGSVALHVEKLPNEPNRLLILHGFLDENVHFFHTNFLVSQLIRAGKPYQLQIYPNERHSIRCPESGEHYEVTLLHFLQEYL

For the compound `N[C@@H](CC(=O)N1CCn2c(nnc2C(F)(F)F)C1)Cc1cc(F)c(F)cc1F` [sitagliptin], the “B16F10 tumor growth in Cxcl10-/- mice” value in the assay on B16F10 melanoma (Cxcl10-/- mice, sitagliptin vs control) was “the delayed tumor growth achieved by DPP4 inhibition was absent”. The “B16F10 tumor growth in Cxcr3-/- mice” value with B16F10 melanoma (Cxcr3-/- mice, sitagliptin vs control) is “abrogated the delayed tumor growth”. Besides, the “B16F10 tumor growth in Dpp4-/- mice” value in the assay on B16F10 melanoma (Dpp4-/- mice, sitagliptin vs control chow) is listed as “did not influence the kinetics of melanoma growth”. Besides, the “B16F10 tumor growth in Rag2-/- mice” value with B16F10 melanoma (Rag2-/- mice, sitagliptin vs control) is “the beneficial effects of DPP4 inhibition were lost”. Besides, the B16F10 tumor growth result in the assay with B16F10 melanoma (WT mice, sitagliptin vs control chow) is given as “reduced tumor growth”. Moreover, the “B16F10 tumor growth with CXCR4 blocking in vivo” value in the assay on B16F10 melanoma (anti-mCXCR4 antibody, sitagliptin vs control) is “did not impact sitagliptin-mediated inhibition of tumor growth”. The “B16F10 tumor growth in wild-type animals treated with CXCL10 blocking antibodies” value in the assay with B16F10 melanoma (loss of sitagliptin effect as in Cxcl10-/- mice) is listed as “confirmed”. The “growth of established B16F10 tumors” value in the assay on B16F10 melanoma (sitagliptin chow started 3, 5 or 7 days after tumor implantation) is on record as “delay in tumor growth if sitagliptin was administrated within 5 days after tumor cell implantation”. Besides, in the assay on CXCR3-expressing T cells (after intraperitoneal mCXCL10, control or sitagliptin-fed mice), the “recruitment of polymorphonuclear cells into the peritoneal cavity” value is given as “did not show differential recruitment”. The “CXCR3 expression on peripheral blood T cells” value with CXCR3-expressing T cells (after intraperitoneal mCXCL10, sitagliptin vs control) is listed as “unaltered CXCR3 expression”. Further, the “mCXCL10-mediated infiltration of T cells into the peritoneal cavity” value in the assay with CXCR3-expressing T cells (intraperitoneal mCXCL10, sitagliptin vs control chow) is “enhanced mCXCL10-mediated infiltration of T cells”. For the same compound, the “CXCR3 plasma membrane expression on migrating T cells” value with CXCR3-expressing T cells (peritoneal cavity after mCXCL10 injection, sitagliptin vs control) is given as “lower”. Further, the “thioglycollate-induced neutrophil, monocyte and eosinophil migration” value in assay [1] is “no differences were observed”. Further, in the assay on CT26 tumors, the “infiltration of lymphocytes, including T cell subsets and NK cells, into CT26 tumors” value is “enhanced infiltration of lymphocytes”; the “number of tumor associated B cells, eosinophils and CD25hi regulatory T cells in CT26 tumors” value is “did not change”. Besides, the “effect on DPP9 activity” value at DPP9 is “no effect”. The malignant transformation result with MEK1 induced skin tumors is on record as “delays malignant transformation”. Moreover, the “effect on DPP8 activity” value on DPP8 is “no effect”.
